Experimental data reported in ChEMBL document CHEMBL2429721, “Novel 2,6-bis(4-methoxyphenyl)-1-methylpiperidin-4-one oxime esters: synthesis and a new insight into their antioxidant and antimicrobial potential” (Med Chem Res, 2013).

Legend:
Type in all cases: functional
[1] = test system: Radical scavenging activity; assay: Antioxidant activity assessed as DPPH free radical scavenging activity after 20 mins by UV-visible spectrophotometric analysis
[2] = Antioxidant activity assessed as ABTS free radical scavenging activity after 30 mins
Aspergillus flavus [3] = assay: Antifungal activity against Aspergillus flavus MTCC 3306 assessed as growth inhibition at 500 ug/mL after 72 hrs by agar well plate method; conditions: MTCC 3306, 72 h, read-out: DIZ
Candida albicans [4] = assay: Antifungal activity against Candida albicans MTCC 3017 assessed as growth inhibition at 500 ug/mL after 72 hrs by agar well plate method; conditions: MTCC 3017, 72 h, read-out: DIZ
[5] = Antifungal activity against Chrysosporium keratinophilum MTCC 2827 assessed as growth inhibition at 1000 ug/mL after 72 hrs by agar well plate method
[6] = Antioxidant activity assessed as ferric ion reducing activity at 10 uM after 20 mins by FRAP assay
Aspergillus flavus [7] = assay: Antifungal activity against Aspergillus flavus MTCC 3306 assessed as growth inhibition at 1000 ug/mL after 72 hrs by agar well plate method; conditions: MTCC 3306, 72 h, read-out: DIZ
Escherichia coli [8] = assay: Antibacterial activity against Escherichia coli ATCC 25922 assessed as growth inhibition at 500 ug/mL after 24 hrs by agar well plate method; conditions: ATCC 25922, 24 h, read-out: DIZ
Candida albicans [9] = assay: Antifungal activity against Candida albicans MTCC 3017 assessed as growth inhibition at 1000 ug/mL after 72 hrs by agar well plate method; conditions: MTCC 3017, 72 h, read-out: DIZ
Escherichia coli [10] = assay: Antibacterial activity against Escherichia coli ATCC 25922 assessed as growth inhibition at 1000 ug/mL after 24 hrs by agar well plate method; conditions: ATCC 25922, 24 h, read-out: DIZ
[11] = Antifungal activity against Chrysosporium keratinophilum MTCC 2827 assessed as growth inhibition at 500 ug/mL after 72 hrs by agar well plate method
Staphylococcus aureus [12] = assay: Antibacterial activity against Staphylococcus aureus ATCC 25923 assessed as growth inhibition at 1000 ug/mL after 24 hrs by agar well plate method; conditions: ATCC 25923, 24 h, read-out: DIZ
Pseudomonas aeruginosa [13] = assay: Antibacterial activity against Pseudomonas aeruginosa ATCC 27853 assessed as growth inhibition at 500 ug/mL after 24 hrs by agar well plate method; conditions: ATCC 27853, 24 h, read-out: DIZ
Staphylococcus aureus [14] = assay: Antibacterial activity against Staphylococcus aureus ATCC 25923 assessed as growth inhibition at 500 ug/mL after 24 hrs by agar well plate method; conditions: ATCC 25923, 24 h, read-out: DIZ
Pseudomonas aeruginosa [15] = assay: Antibacterial activity against Pseudomonas aeruginosa ATCC 27853 assessed as growth inhibition at 1000 ug/mL after 24 hrs by agar well plate method; conditions: ATCC 27853, 24 h, read-out: DIZ
[16] = Antioxidant activity assessed as cupric ion reducing activity at 10 uM after 30 mins by CUPRAC assay

IC50 [1] [µM]	IC50 [2] [µM]	SMILES	zone of inhibition at 500 µg/mL (Aspergillus flavus [3]) [mm]	zone of inhibition at 500 µg/mL (Candida albicans [4]) [mm]	inhibition zone (IZ) [5] [mm]	Activity [6]	zone of inhibition at 1000 µg/mL (Aspergillus flavus [7]) [mm]	zone of inhibition at 500 µg/mL (Escherichia coli [8]) [mm]	zone of inhibition at 1000 µg/mL (Candida albicans [9]) [mm]	zone of inhibition at 1000 µg/mL (Escherichia coli [10]) [mm]	inhibition zone (IZ) [11] [mm]	zone of inhibition at 1000 µg/mL (Staphylococcus aureus [12]) [mm]	zone of inhibition at 500 µg/mL (Pseudomonas aeruginosa [13]) [mm]	zone of inhibition at 500 µg/mL (Staphylococcus aureus [14]) [mm]	zone of inhibition at 1000 µg/mL (Pseudomonas aeruginosa [15]) [mm]	Activity [16]
120	280	COc1ccc(C2CC(=NOC(=O)c3ccc([N+](=O)[O-])cc3)CC(c3ccc(OC)cc3)N2C)cc1 (stereo not drawn)	2	7	4	0.216	3	3	6	7	3	7	5	3	8	0.157
11	18	COc1ccc(C2CC(=NOC(=O)c3cc(O)c(O)c(O)c3)CC(c3ccc(OC)cc3)N2C)cc1 (stereo not drawn)	1	6	3	0.373	3	4	8	6	2	5	3	3	4	0.361
152	375	COc1ccc(C2CC(=NOC(=O)c3ccccc3)CC(c3ccc(OC)cc3)N2C)cc1 (stereo not drawn)	1	2	2	0.132	1	1	3	2	1	3	1	2	2	0.111
12	19	COc1ccc(C2CC(=NOC(=O)c3cc(O)cc(O)c3)CC(c3ccc(OC)cc3)N2C)cc1 (stereo not drawn)	0	3	0	0.352	1	4	3	3	1	4	4	4	5	0.363
15	25	COc1ccc(C2CC(=NOC(=O)c3ccc(O)cc3)CC(c3ccc(OC)cc3)N2C)cc1 (stereo not drawn)	1	2	2	0.333	0	3	2	4	1	5	2	3	3	0.293

The remaining lines, values behind:

SMILES	IC50 [1] [µM]	IC50 [2] [µM]	zone of inhibition at 500 µg/mL (Aspergillus flavus [3]) [mm]	zone of inhibition at 500 µg/mL (Candida albicans [4]) [mm]	inhibition zone (IZ) [5] [mm]	Activity [6]	zone of inhibition at 1000 µg/mL (Aspergillus flavus [7]) [mm]	zone of inhibition at 500 µg/mL (Escherichia coli [8]) [mm]	zone of inhibition at 1000 µg/mL (Candida albicans [9]) [mm]	zone of inhibition at 1000 µg/mL (Escherichia coli [10]) [mm]	inhibition zone (IZ) [11] [mm]	zone of inhibition at 1000 µg/mL (Staphylococcus aureus [12]) [mm]	zone of inhibition at 500 µg/mL (Pseudomonas aeruginosa [13]) [mm]	zone of inhibition at 500 µg/mL (Staphylococcus aureus [14]) [mm]	zone of inhibition at 1000 µg/mL (Pseudomonas aeruginosa [15]) [mm]	Activity [16]
COc1ccc(C2CC(=NOC(=O)c3ccc(F)cc3)CC(c3ccc(OC)cc3)N2C)cc1 (stereo not drawn)	86	152	10	10	9	0.236	12	12	16	17	7	13	15	9	19	0.163
COc1ccc(C2CC(=NOC(=O)c3ccc(Cl)cc3)CC(c3ccc(OC)cc3)N2C)cc1 (stereo not drawn)	98	135	5	10	8	0.258	8	10	11	16	7	12	12	8	16	0.192
COc1ccc(C2CC(=NOC(=O)c3cccc(Cl)c3)CC(c3ccc(OC)cc3)N2C)cc1 (stereo not drawn)	186	136	6	7	7	0.243	7	7	10	12	5	9	8	7	11	0.179
COc1ccc(C2CC(=NOC(=O)c3ccc(Br)cc3)CC(c3ccc(OC)cc3)N2C)cc1 (stereo not drawn)	92	121	4	8	6	0.265	5	6	9	10	4	8	7	6	9	0.215
COc1ccc(C2CC(=NOC(=O)c3ccc(C)cc3)CC(c3ccc(OC)cc3)N2C)cc1 (stereo not drawn)	143	368	1	1	1	0.154	2	1	2	3	2	3	2	1	2	0.127
COc1ccc(C2CC(=NOC(=O)c3cc([N+](=O)[O-])cc([N+](=O)[O-])c3)CC(c3ccc(OC)cc3)N2C)cc1 (stereo not drawn)	125	312	3	3	5	0.195	4	4	8	9	5	6	6	3	9	0.145
COc1ccc(C2CC(=NOC(=O)c3ccc(OC)cc3OC)CC(c3ccc(OC)cc3)N2C)cc1 (stereo not drawn)	56	80	3	4	4	0.296	4	3	6	5	3	4	6	2	6	0.236
COc1ccc(C2CC(=NO)CC(c3ccc(OC)cc3)N2C)cc1 (stereo not drawn)	165	380	0	1	1	0.127	1	0	1	1	1	1	0	0	1	0.164
